Experimental findings from ChEMBL document CHEMBL1130365, “4-Sulfonamidoanilide tertiary carbinols: A novel series of potassium channel openers” (Bioorg Med Chem Lett, 1997) are described below.

Where only a bound is given, the exact number is not on record here.

The assay has as its target Sulfonylurea receptors; K-ATP channels (Homo sapiens, UniProt O60706+Q09428+Q14654+Q15842). The experiment in a line: Compound was measured in vitro for potassium channel opening (PCO) activity. Type of assay: protein-complex assay, Cavia porcellus.
On to `CC(O)(C(=O)Nc1ccc(/C(=N\O)c2ccccc2)cc1)C(F)(F)F` (mixture of isomers), for which the IC50 (as a rule, the concentration needed to halve the response being measured) was above 30 µM.
To `CC(O)(C(=O)Nc1ccc([C@@H](O)c2ccccc2)cc1)C(F)(F)F` (mixture of isomers) belongs above 30 µM; to `CC(O)(C(=O)Nc1ccc([C@H](O)c2ccccc2)cc1)C(F)(F)F` (mixture of isomers), above 30 µM; to `CC(O)(C(=O)Nc1ccc(S(=O)(=O)N(c2ccccc2)c2ccccc2)cc1)C(F)(F)F` (racemic), above 30 µM.
`CO/N=C(/c1ccccc1)c1ccc(NC(=O)C(C)(O)C(F)(F)F)cc1` (racemic) came in with an IC50 above 30 µM.
In the case of `CC(O)(C(=O)Nc1ccc(S(=O)(=O)Nc2ccccc2)cc1)C(F)(F)F` (racemic) it was above 30 µM; in that of `CCN(CC)C(=O)c1ccc(NC(=O)C(C)(O)C(F)(F)F)cc1` (racemic), above 30 µM; in that of `CC(O)(C(=O)Nc1ccc(S(=O)(=O)N2CCSCC2)cc1)C(F)(F)F` (racemic), 4.58 µM.
To `CC(O)(C(=O)Nc1ccc(S(=O)(=O)N2CCOCC2)cc1)C(F)(F)F` (racemic) belongs 5.85 µM; to `CCC(C)N(C(C)CC)S(=O)(=O)c1ccc(NC(=O)C(C)(O)C(F)(F)F)cc1` (racemic), above 30 µM.
To `CC(O)(C(=O)Nc1ccc(Sc2ccccc2)cc1)C(F)(F)F` (racemic) belongs above 30 µM.
In turn, `CC(O)(C(=O)Nc1ccc(-c2nn[nH]n2)cc1)C(F)(F)F` (racemic) displayed an IC50 above 30 µM.
To `CN(C)S(=O)(=O)c1ccc(NC(=O)C(C)(O)C(F)(F)F)cc1` (racemic) belongs 0.48 µM; to `CCN(CC)S(=O)(=O)c1ccc(NC(=O)C(C)(O)C(F)(F)F)cc1` (racemic), 0.81 µM.
In the case of `CC(O)(C(=O)Nc1ccc(S(=O)(=O)N2CCCC2)cc1)C(F)(F)F` (racemic) it was 0.88 µM.
To `Cn1nnnc1-c1ccc(NC(=O)C(C)(O)C(F)(F)F)cc1` (racemic) belongs 30.9 µM; to `CCCN(CCC)S(=O)(=O)c1ccc(NC(=O)C(C)(O)C(F)(F)F)cc1` (racemic), 6.44 µM.
Turning to `CC(C)CN(CC(C)C)S(=O)(=O)c1ccc(NC(=O)C(C)(O)C(F)(F)F)cc1` (racemic), the 50% inhibitory concentration (IC50) is above 30 µM.
To `CC(O)(C(=O)Nc1ccc(S(=O)(=O)N2CCNCC2)cc1)C(F)(F)F` (racemic) belongs above 30 µM.
As for `CC(O)(C(=O)Nc1ccc(S(=O)(=O)N2CCCCC2)cc1)C(F)(F)F` (racemic), 9.25 µM corresponded to half-maximal inhibition (IC50).
In the case of `CC(O)(C(=O)Nc1ccc(S(N)(=O)=O)cc1)C(F)(F)F` (racemic) it was 12.8 µM.
